According to the supplement of paper PMC10307832:

Legend:
Assay in all cases: relative viability (nuclei count vs DMSO), 5 days (fraction); higher = more cells survive
[1] = compound: C1COCCN1C2=NC(=NC3=C2OC4=C3C=CC=N4)C5=CC(=CC=C5)NC(=O)C6=CN=C(C=C6)N + Cc1nc(Nc2ncc(C(=O)Nc3c(C)cccc3Cl)s2)cc(N2CCN(CCO)CC2)n1 [Dasatinib] (partner 0.075 µM)
Outline: (§1)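 Relative viability is defined as nuclei in treated wells over nuclei in vehicle wells. Duplicate plates were run and medians reported. Lung cancer cell lines in 1536-well plates were dosed by pin tool one day after seeding, with one drug or with a fixed anchor-drug dose plus five library-drug doses (not always all listed) in √10 steps, and nuclei were counted after 5 days.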

SGI-1776 + OSI-027 = compound: CN1CCC(CNc2ccc3ncc(-c4cccc(OC(F)(F)F)c4)n3n2)CC1 [SGI-1776] + COc1cccc2cc(-c3nc([C@H]4CC[C@H](C(=O)O)CC4)n4ncnc(N)c34)[nH]c12 [OSI-027] (partner 0.5 µM)
Outline: as §1

[2] = compound: C1COCCN1C2=NC(=NC3=C2OC4=C3C=CC=N4)C5=CC(=CC=C5)NC(=O)C6=CN=C(C=C6)N + CCNC(=O)c1noc(-c2cc(C(C)C)c(O)cc2O)c1-c1ccc(CN2CCOCC2)cc1 [Luminespib] (partner 0.01 µM)
Outline: as §1

Entinostat + Vorinostat = compound: Nc1ccccc1NC(=O)c1ccc(CNC(=O)OCc2cccnc2)cc1 [Entinostat] + O=C(CCCCCCC(=O)Nc1ccccc1)NO [Vorinostat] (partner 1 µM)
Outline: as §1

Cell Line	relative viability ([1]; first compound 0.02 µM)	relative viability ([1]; first compound 0.06325 µM)	relative viability ([1]; first compound 0.2 µM)	relative viability ([1]; first compound 0.6325 µM)	relative viability ([1]; first compound 2 µM)	relative viability (SGI-1776 + OSI-027; first compound 0.08 µM)	relative viability (SGI-1776 + OSI-027; first compound 0.8 µM)	relative viability (SGI-1776 + OSI-027; first compound 2.53 µM)	relative viability (SGI-1776 + OSI-027; first compound 8 µM)	relative viability ([2]; first compound 0.02 µM)	relative viability ([2]; first compound 0.06325 µM)	relative viability ([2]; first compound 0.2 µM)	relative viability ([2]; first compound 0.6325 µM)	relative viability ([2]; first compound 2 µM)	relative viability (Entinostat + Vorinostat; first compound 0.02 µM)	relative viability (Entinostat + Vorinostat; first compound 0.06325 µM)	relative viability (Entinostat + Vorinostat; first compound 0.2 µM)	relative viability (Entinostat + Vorinostat; first compound 0.6325 µM)	relative viability (Entinostat + Vorinostat; first compound 2 µM)
RERF-LC-KJ	0.944	1	0.79	0.713	0.559	0.592	0.52	0.507	0.305	1.22	1.3	1.02	1.38	0.633	0.68	0.665	0.578	0.381	0.25
SK-LU-1	0.153	0.188	0.168	0.176	0.16	0.397	0.328	0.335	0.166	0.202	0.206	0.218	0.214	0.181	0.775	0.801	0.747	0.579	0.582
SK-MES-1	0.342	0.406	0.259	0.239	0.244	0.673	0.585	0.649	0.314	0.736	0.907	0.816	0.657	0.494	1.02	1.03	1.26	0.954	0.743
SW 900	0.54	0.538	0.613	0.518	0.448	0.56	0.689	0.564	0.399	0.203	0.166	0.172	0.152	0.174	0.634	0.485	0.476	0.376	0.264
SW 1573	0.401	0.565	0.458	0.378	0.247	0.673	0.715	0.631	0.391	0.152	0.232	0.118	0.176	0.3	0.698	0.891	0.88	0.422	0.43
